In patent publication US5770691A, “Discriminatory substrates for MMP hydrolysis” (Regents of the University of Minnesota, priority 1995, dated 1998):
Like-named read-outs stand apart in the source and are kept apart here. Where a SMILES comes first, the peptide text is derived from it. [ ]: non-standard residue; d: D form. The star is where a group is joined. Dnp = O=[N+]([O-])c1ccc(*)c([N+](=O)[O-])c1; Mca = COc1ccc2c(CC(=O)*)cc(=O)oc2c1; Nva = CCC[C@H](N)C(=O)O

Columns and labels:
MMP-9 [1] = molecular target: T1, MMP-9 (Homo sapiens, UniProt P14780); assay: Fluorometric hydrolysis of synthetic Mca/Lys(Dnp) substrates by MMP-9; type: biochemical; design: made in house; host or cells: native secreted protein purified from culture medium of HT-1080 cells
T1 sequence (P14780 107-707 limits assumed): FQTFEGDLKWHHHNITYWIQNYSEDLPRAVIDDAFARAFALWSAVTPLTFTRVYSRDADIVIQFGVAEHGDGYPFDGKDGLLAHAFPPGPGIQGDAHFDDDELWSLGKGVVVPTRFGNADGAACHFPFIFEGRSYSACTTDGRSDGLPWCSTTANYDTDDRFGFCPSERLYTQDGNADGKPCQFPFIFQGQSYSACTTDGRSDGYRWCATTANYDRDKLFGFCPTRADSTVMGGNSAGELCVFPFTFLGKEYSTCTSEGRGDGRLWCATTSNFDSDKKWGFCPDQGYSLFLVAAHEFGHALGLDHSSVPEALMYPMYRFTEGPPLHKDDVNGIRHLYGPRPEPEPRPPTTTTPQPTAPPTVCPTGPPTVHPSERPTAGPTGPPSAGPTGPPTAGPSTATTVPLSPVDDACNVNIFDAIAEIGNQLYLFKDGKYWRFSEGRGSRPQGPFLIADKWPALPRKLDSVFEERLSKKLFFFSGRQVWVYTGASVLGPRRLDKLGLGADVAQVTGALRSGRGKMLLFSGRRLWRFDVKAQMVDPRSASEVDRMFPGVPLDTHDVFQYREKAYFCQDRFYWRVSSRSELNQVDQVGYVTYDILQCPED
Excerpt: (§1) All MMPs were purified in zymogen form. ProMMP-1 (Suzuki et al., Biochem., 29, 10261 (1990)), proMMP-2 (Okada et al., Eur. J. Biochem., 194, 721 (1990)), and proMMP-3 (Ito et al., Arch. Biochem. Biophys., 267, 211 (1988)) were purified from the culture medium of human rheumatoid synovial cells stimulated with rabbit macrophage-conditioned medium. ProMMP-9 was purified from the culture medium of HT-1080 cells as described in Morodomi et al., Biochem. J., 285, 603 (1992). ProMMP-2 and proMMP-9 were activated by reacting with 1 mM 4-aminophenylmercuric acetate at 37° C. for 45 minutes and 32 hours, respectively. ProMMP-1 was activated by reacting with 1 mM 4-aminophenylmercuric acetate and an equimolar amount of MMP-3 at 37° C. for 6 hours. After activation, MMP-3 was completely removed from MMP-1 by affinity chromatography using an anti-MMP-3 IgG Affi-Gel 10 column. The resin, Affi-Gel 10 (Biorad, Emoryville, Calif.), was coupled to anti-MMP-3 IgG (Okada et al., Annals of Rheumat. Dis., 48, 645 (1989)) per the manufacturer's protocol. Pro-MMP-3 was activated by reacting with 5 μg/mL chymotrypsin at 37° C. for 2 hours. Chymotrypsin was inactivated with 2 mM diisopropylfluorophosphate. The amounts of active MMP-1, MMP-2, and MMP-3 were determined by titration with tissue inhibitor of metalloproteinase-1(TIMP1) over a concentration range of 0.1-3 μg/mL, while the amount of active MMP-9 was determined by titration with TIMP-2 (0.1-3 μg/mL). TIMP-1 was isolated from the medium of HT-1080 cells as described in Morodomi et al., Biochem J., 285, 603 (1992).
(§2) Substrates were prepared as 10 mM stock solutions in dimethylsulfoxide (DMSO). Fluorescent assays were performed at λex =325 nm and λem =393 nm, which should encounter no interference from Trp residues, using a Hitachi fluorescence spectrophotometer F-3010. Initial total hydrolysis assays were run at a substrate concentration of […] to avoid filtering effects. The change in fluorescence at this concentration was 110 based on total hydrolysis of 1 μM substrate. A typical assay was carried out by incubating 100 μL of various concentrations of a substrate with 10 μL of an enzyme solution (2-20 nM) in 50 mM Tris-HCl, pH 7.5, 0.15M NaCl, 10 mM CaCl2, 0.05% Brij 35, 0.02% NaN3. The reaction was stopped by addition of 900 μl of 3% (v/v) glacial acetic acid. MMP-3 activity at pH 6.0 was measured in 50 mM sodium acetate buffer, pH 6.0, instead of Tris-HCl buffer. The amount of substrate hydrolysis was calculated based on the fluorescence values of the Mca-Arg-Pro-Lys-Pro-Gln standard solution after substraction of the reaction blank value (stopping solution added before the enzyme). Individual kinetic parameters (kcat and KM) were determined over a substrate concentration range of 2.5-75 μM and calculated by double reciprocal plots.

MMP-9 [2] = molecular target: T1, MMP-9; assay: as above; type: biochemical; design: made in house; host or cells: native secreted protein purified from culture medium of HT-1080 cells; settings: Edman degradation analysis after 36-72 hour treatment of substrate with MMP
MMP-1 = molecular target: T2, MMP-1 (Homo sapiens, UniProt P03956); assay: Fluorometric hydrolysis of synthetic Mca/Lys(Dnp) substrates by MMP-1; type: biochemical; design: made in house; host or cells: native secreted protein purified from culture medium of human rheumatoid synovial cells; settings: for site of hydrolysis by MMP-1: Edman degradation analysis after 36-72 hour treatment of substrate with MMP
T2 sequence (P03956 100-469): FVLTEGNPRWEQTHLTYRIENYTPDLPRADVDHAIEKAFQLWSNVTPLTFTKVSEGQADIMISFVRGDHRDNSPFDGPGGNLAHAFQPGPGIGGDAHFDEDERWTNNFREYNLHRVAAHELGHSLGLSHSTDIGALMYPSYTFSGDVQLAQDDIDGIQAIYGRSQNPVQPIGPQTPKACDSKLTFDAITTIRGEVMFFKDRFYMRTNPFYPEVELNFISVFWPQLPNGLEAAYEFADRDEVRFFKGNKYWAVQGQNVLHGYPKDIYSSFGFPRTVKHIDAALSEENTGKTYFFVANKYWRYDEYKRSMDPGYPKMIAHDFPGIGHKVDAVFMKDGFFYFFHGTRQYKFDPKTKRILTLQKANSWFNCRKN
Excerpt: as §1, §2

MMP-2 = molecular target: T3, MMP-2 (Homo sapiens, UniProt P08253); assay: Fluorometric hydrolysis of synthetic Mca/Lys(Dnp) substrates by MMP-2; type: biochemical; design: made in house; host or cells: native secreted protein purified from culture medium of human rheumatoid synovial cells; settings: for site of hydrolysis by MMP-2: Edman degradation analysis after 36-72 hour treatment of substrate with MMP
T3 sequence (P08253 110-660): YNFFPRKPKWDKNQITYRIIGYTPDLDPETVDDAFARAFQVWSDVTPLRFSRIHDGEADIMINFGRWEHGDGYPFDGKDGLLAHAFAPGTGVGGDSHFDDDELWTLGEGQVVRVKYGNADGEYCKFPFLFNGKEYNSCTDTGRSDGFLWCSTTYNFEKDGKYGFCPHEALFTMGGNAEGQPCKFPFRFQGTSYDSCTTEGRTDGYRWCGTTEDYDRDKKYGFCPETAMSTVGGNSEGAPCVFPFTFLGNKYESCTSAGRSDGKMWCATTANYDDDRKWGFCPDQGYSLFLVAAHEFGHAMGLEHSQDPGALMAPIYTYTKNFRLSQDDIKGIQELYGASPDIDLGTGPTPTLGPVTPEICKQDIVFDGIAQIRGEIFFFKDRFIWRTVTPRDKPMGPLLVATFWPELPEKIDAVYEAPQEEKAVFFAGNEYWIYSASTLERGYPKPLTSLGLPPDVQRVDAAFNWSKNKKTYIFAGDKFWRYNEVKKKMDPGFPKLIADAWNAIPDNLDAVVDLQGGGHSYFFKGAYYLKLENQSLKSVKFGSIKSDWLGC
Excerpt: as §1, §2

MMP-3 [3] = molecular target: T4, MMP-3 (Homo sapiens, UniProt P08254); assay: Fluorometric hydrolysis of synthetic Mca/Lys(Dnp) substrates by MMP-3; type: biochemical; design: made in house; host or cells: native secreted protein purified from culture medium of human rheumatoid synovial cells; settings: for kcat /Km: MMP-3, 37° C., pH 7.5
Excerpt: as §1, §2
Target sequence in this assay (P08254 100-477): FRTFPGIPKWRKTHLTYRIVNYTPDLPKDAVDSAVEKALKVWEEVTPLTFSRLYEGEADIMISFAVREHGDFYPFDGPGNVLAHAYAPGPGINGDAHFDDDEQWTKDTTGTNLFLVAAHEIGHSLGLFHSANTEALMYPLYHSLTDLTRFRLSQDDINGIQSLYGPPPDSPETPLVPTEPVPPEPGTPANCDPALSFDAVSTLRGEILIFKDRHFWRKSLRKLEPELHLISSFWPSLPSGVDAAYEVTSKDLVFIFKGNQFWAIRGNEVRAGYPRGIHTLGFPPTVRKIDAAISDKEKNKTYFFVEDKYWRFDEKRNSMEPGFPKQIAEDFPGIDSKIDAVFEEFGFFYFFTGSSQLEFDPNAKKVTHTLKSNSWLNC

MMP-3 [4] = molecular target: T4, MMP-3; assay: as above; type: biochemical; design: made in house; host or cells: native secreted protein purified from culture medium of human rheumatoid synovial cells; settings: Edman degradation analysis after 36-72 hour treatment of substrate with MMP
Target sequence in this assay (P08254 100-477): as above

MMP-3 [5] = molecular target: T4, MMP-3; settings: MMP-3 cleavage, cited from earlier work
Target sequence in this assay (P08254 100-477, species assumed): as the sequence (P08254 100-477) above

MMP-3 [6] = molecular target: T4, MMP-3; settings: cited from earlier work
Target sequence in this assay (P08254 100-477, species assumed): as the sequence (P08254 100-477) above

## COc1ccc2c(CC(=O)N3CCC[C@H]3C(=O)N[C@@H](CCCCN)C(=O)N3CCC[C@H]3C(=O)N[C@@H](CCC(N)=O)C(=O)N[C@@H](CCC(N)=O)C(=O)N[C@@H](Cc3ccccc3)C(=O)N[C@@H](Cc3ccccc3)C(=O)NCC(=O)N[C@@H](CC(C)C)C(=O)N[C@@H](CCCCNc3ccc([N+](=O)[O-])cc3[N+](=O)[O-])C(=O)NCC(=O)O)cc(=O)oc2c1 [NFF-1, Mca-Pro-Lys-Pro-Gln-Gln-Phe-Phe-Gly-Leu-Lys(Dnp)-Gly] (Mca-PKPQQFFGLK(Dnp)G-OH)
MMP-9 [1]; MMP-9 compared with MMP-3
  less activity of MMP-9 than MMP-3 towards the substrate: 60%
MMP-9 [2]
  site of hydrolysis by MMP-9: Gly--Leu bond
MMP-1; Edman degradation analysis after 36-72 hour treatment
  ratio of hydrolysis at the Gln-Phe and Gly-Leu bonds by MMP-1: 3.2
MMP-1
  site of hydrolysis by MMP-1: Gln--Phe and Gly--Leu bonds
MMP-1; MMP-1 compared with MMP-3
  less activity of MMP-1 than MMP-3 towards the substrate: 75%
MMP-2
  site of hydrolysis by MMP-2: Gln--Phe bond
MMP-3 [3]
  kcat /Km: 10,900 S^-1 M^-1
MMP-3 [3]; MMP-3 and MMP-2
  hydrolysis by MMP-3 compared with MMP-2: equally well
MMP-3 [4]
  site of hydrolysis by MMP-3: Gln--Phe bond

## CCC[C@H](NC(=O)[C@H](C)NC(=O)[C@H](Cc1ccc(O)cc1)NC(=O)[C@@H]1CCCN1C(=O)[C@H](CCCCN)NC(=O)[C@@H]1CCCN1C(=O)[C@H](CCCNC(=N)N)NC(=O)Cc1cc(=O)oc2cc(OC)ccc12)C(=O)N[C@@H](Cc1c[nH]c2ccccc12)C(=O)N[C@@H](CCSC)C(=O)N[C@@H](CCCCNc1ccc([N+](=O)[O-])cc1[N+](=O)[O-])C(N)=O [NFF-2, Mca-Arg-Pro-Lys-Pro-Tyr-Ala-Nva-Trp-Met-Lys(Dnp)-NH2] (Mca-RPKPYA[Nva]WMK(Dnp)-NH2)
MMP-9 [1]
  hydrolysis by MMP-9: most rapidly hydrolyzed substrate for MMP-9 reported to date
MMP-9 [1]; rate relative to NFF-1
  hydrolyzed more rapidly than NFF-1 by MMP-9: 14 times
MMP-9 [2]
  site of hydrolysis by MMP-9: Ala--Nva bond
MMP-1
  site of hydrolysis by MMP-1: Ala--Nva bond
MMP-1; relative to NFF-1
  MMP-1 activity reduced compared to NFF-1: ~ 50%
MMP-2
  site of hydrolysis by MMP-2: Ala--Nva bond
MMP-2; rate relative to NFF-1
  hydrolyzed more rapidly than NFF-1 by MMP-2: 5 times
MMP-3 [3]
  kcat /Km: 59,400 S^-1 M^-1
MMP-3 [3]; rate relative to NFF-1
  hydrolyzed more rapidly than NFF-1 by MMP-3: 6 times
MMP-3 [3]; selectivity MMP-3 over MMP-1
  hydrolyzed more rapidly by MMP-3 than MMP-1: 60 times
MMP-3 [4]
  site of hydrolysis by MMP-3: Ala--Nva bond

## Antithrombin III
MMP-3 [5]; determined at 37° C.
  kcat /Kb: < 50 S^-1 M^-1

## Dnp--Pro--Tyr--Ala"--"Tyr--Trp--Met--Arg--NH3 (Dnp-PYAYWMR-NH2; not fully specified; printed as Dnp—Pro—Tyr—Ala"—"Tyr—Trp—Met—Arg—NH$_3$) [literature fluorogenic substrate (Netzel-Arnett et al., 1991)]
MMP-3 [6]; MMP-3, assay at 23° C.
  kcat: 0.24 S^-1
MMP-3 [6]; MMP-3, assay at 30° C.
  Km: 100 µM
MMP-3 [6]; MMP-3, assay at 37° C.
  kcat Km: 2,400 S^-1 M^-1

## Dnp-Arg-Pro-Lys-Pro-Leu-Ala-Nva-Trp-NH2 (Dnp-RPKPLA[Nva]W-NH2; SMILES CCC[C@H](NC(=O)[C@H](C)NC(=O)[C@H](CC(C)C)NC(=O)[C@@H]1CCCN1C(=O)[C@H](CCCCN)NC(=O)[C@@H]1CCCN1C(=O)[C@H](CCCNC(=N)N)Nc1ccc([N+](=O)[O-])cc1[N+](=O)[O-])C(=O)N[C@@H](Cc1c[nH]c2ccccc12)C(N)=O) [literature fluorogenic MMP-3 substrate (Niedzwiecki et al., 1992)]
MMP-3 [6]; MMP-3, assay at 25° C.
  kcat Km: 45,000 S^-1 M^-1

## Gly--Pro--Gln--Gly"--"Ile--Ala--Met--Gln (chain 1 GPQG; chain 2 IAMQ; printed: Gly--Pro--Gln--Gly; printed: Ile--Ala--Met--Gln) [literature synthetic MMP-3 substrate (Fields, 1988)]
MMP-3 [6]; MMP-3, assay at 30° C.
  Km: 5600 µM
  kcat: 0.69 S^-1
  kcat Km: 120 S^-1 M^-1

## Human aggrecan: extracellular matrix protein cleaved by MMP-3 at Asn341-Phe342
MMP-3 [5]; determined at 22° C.
  kcat /Kb: 4,000 S^-1 M^-1

## Human α2 -macroglobulin: protein substrate of MMP-3; cleavage sites Gly679-Leu680 and Phe684-Tyr685
MMP-3 [5]; determined at 25° C.
  kcat /Kb: 56,000 S^-1 M^-1

## Substance P: 11 residue peptide substrate of MMP-3, cleaved at Gln6-Phe7 [reference compound]
MMP-3 [5]; determined at 37° C.
  kcat /Kb: 1,790 S^-1 M^-1

## α1 -Protease inhibitor: protease inhibitor cleaved by MMP-3 at Pro357-Met358
MMP-3 [5]; determined at 37° C.
  kcat /Kb: 5,400 S^-1 M^-1
